Experimental data from patent US20260174875A1 (Novo Nordisk A/S, priority 2023, published 2026).
Read-outs that look alike come from different tables or passages of the source. Numbered stars: 1 amine (or outer) side, 2 acyl side, 3 side chain; on linkers, the order of the positions; unused ones are H or OH. Square brackets hold non-standard residues; d marks the D form. Side chains are listed from the residue outwards. * marks the point of attachment. C20 diacid = O=C(O)CCCCCCCCCCCCCCCCCCC(=O)*; C18 diacid = O=C(O)CCCCCCCCCCCCCCCCC(=O)*; γGlu = O=C(O)[C@H](CCC(=O)[*:2])N[*:1]; AEEA = NCCOCCOCC(=O)O; Aib = CC(C)(N)C(=O)O

Experiments:
[1] = biological target: T1, human GIP receptor (hGIPR) (Homo sapiens, UniProt P48546); experiment: GIP receptor assay, method A (CRE-luciferase reporter, BHK cells); assay type: cell-based
T1 construct: expressed in transfected cells
T1 sequence (P48546 22-466): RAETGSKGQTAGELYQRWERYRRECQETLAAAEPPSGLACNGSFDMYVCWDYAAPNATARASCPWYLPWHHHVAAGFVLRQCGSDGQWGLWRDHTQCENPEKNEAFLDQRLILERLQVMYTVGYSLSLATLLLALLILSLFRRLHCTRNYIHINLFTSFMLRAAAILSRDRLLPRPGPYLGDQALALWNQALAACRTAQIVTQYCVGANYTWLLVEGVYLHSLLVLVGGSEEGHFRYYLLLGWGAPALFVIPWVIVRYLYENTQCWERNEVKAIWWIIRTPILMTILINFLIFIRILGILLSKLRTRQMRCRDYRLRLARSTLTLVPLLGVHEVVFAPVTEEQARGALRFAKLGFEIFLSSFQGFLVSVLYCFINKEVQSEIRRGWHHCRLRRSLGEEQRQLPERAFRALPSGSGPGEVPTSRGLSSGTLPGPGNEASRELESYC
Method in brief: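 BHK cells co-expressing hGIPR and a CRE-luciferase reporter, plated 21-23 h before assay, stimulated 3 h at 37 °C with compounds (7-point 10-fold titration, duplicates) in ovalbumin-containing DMEM buffer with or without 1% HSA final. Luminescence read; EC50 (pM) from four-parameter logistic fit with shared Hill slope.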

[2] = biological target: T2, human GLP-1 receptor (hGLP-1R) (Homo sapiens, UniProt P43220); experiment: GLP-1 receptor assay, method A (CRE-luciferase reporter, BHK cells); assay type: cell-based
T2 construct: expressed in transfected cells
Method in brief: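 In this CRE-luciferase reporter assay, the human receptor was expressed in BHK cells, and cAMP signalling was followed after a 3 h stimulation at 37° C. The buffer contained 1% (w/v) ovalbumin, and testing was done with and without 1% (w/v) human serum albumin.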

[3] = hGIPR Potency, 1% HSA, EC50, method A, in the presence of 1% HSA
[4] = method A, absence of HSA, read-out: hGIPR Potency, no HSA, EC50
[5] = hGLP-1R Potency, 1% HSA, EC50, method A, in the presence of 1% HSA
[6] = method A, absence of HSA, read-out: hGLP-1R Potency, no HSA, EC50

T2 sequence (P43220 24-463): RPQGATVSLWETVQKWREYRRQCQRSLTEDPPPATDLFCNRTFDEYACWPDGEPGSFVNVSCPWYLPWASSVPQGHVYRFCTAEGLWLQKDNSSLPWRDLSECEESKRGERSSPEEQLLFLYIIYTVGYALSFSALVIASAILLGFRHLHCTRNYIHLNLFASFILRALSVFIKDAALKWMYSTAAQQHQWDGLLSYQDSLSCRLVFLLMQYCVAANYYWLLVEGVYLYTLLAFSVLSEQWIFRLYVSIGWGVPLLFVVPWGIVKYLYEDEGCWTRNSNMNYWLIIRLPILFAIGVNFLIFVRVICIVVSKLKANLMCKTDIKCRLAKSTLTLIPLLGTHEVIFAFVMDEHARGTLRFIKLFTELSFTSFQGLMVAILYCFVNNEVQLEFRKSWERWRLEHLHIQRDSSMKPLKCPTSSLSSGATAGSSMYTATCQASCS

Row | Substance | EC50 [1, 3] | EC50 [1, 4] | EC50 [2, 5] | EC50 [2, 6]
1 | Y[Aib]EGTFTSDYSILLEEQAAREFIEWLLAGGPSSGAGQAPGQAPLASHLSTAQTQRLSAELHK([AEEA-AEEA-γGlu-C18 diacid])LATLPRTETGSGSP-NH2 [compound 58] | 0.00758 nM | 0.00188 nM | 0.0256 nM | 0.0127 nM
2 | Y[Aib]EGTFTSDYSILLEEQAAREFIEWLLAGGPSSGALQAPGQAPLASHLSTAQTQRLSAELHK([AEEA-AEEA-γGlu-C20 diacid])LATLPRTETGSGSP-NH2 [Compound 99] | 0.00741 nM | 0.00209 nM | 0.0362 nM | 0.0167 nM
3 | Y[Aib]EGTFTSDYSILLEEQAAREFIEWLLAGGPSSGAPPPSGGGEASHLSTAQTQRLSAK([AEEA-AEEA-γGlu-C18 diacid])LHRLATLPRTETGSGSP-NH2 [Compound 109] | 0.0174 nM | 0.00742 nM | 0.0947 nM | 0.0689 nM
4 | Y[Aib]EGTFTSDYSILLEEQAAREFIEWLLAGGPSSGAPPPSGGGEASHLSTAQTQRLSAK([AEEA-AEEA-γGlu-C20 diacid])LHRLATLPRTETGSGSP-NH2 [Compound 110] | 0.0293 nM | 0.00801 nM | 0.169 nM | 0.107 nM

Second part, the substance after the results:

Row | EC50 [1, 3] | EC50 [1, 4] | EC50 [2, 5] | EC50 [2, 6] | Substance
5 | 0.0151 nM | 0.00236 nM | 0.0663 nM | 0.0162 nM | Y[Aib]EGTFTSDYSILLEEQAAREFIEWLLAGGPSSGEASHLSTAQTQRLSAELHK([AEEA-AEEA-γGlu-C18 diacid])LATLPRTETGSGSP-NH2 [Compound 50]
6 | 0.0203 nM | 0.00401 nM | 0.111 nM | 0.0248 nM | Y[Aib]EGTFTSDYSILLEEQAAREFIEWLLAGGPSSGEASHLSTAQTQRLSAELHRLK([AEEA-AEEA-γGlu-C18 diacid])TLPRTETGSGSP-NH2 [Compound 80]
7 | 0.0247 nM | 0.0047 nM | 0.168 nM | 0.0387 nM | Y[Aib]EGTFTSDYSILLEEQAAREFIEWLLAGGPSSGEASHLSTAQTQRLSAK([AEEA-AEEA-γGlu-C18 diacid])LHRLATLPRTETGSGSP-NH2 [Compound 79]
